Test results: patent publication US11673894B2, “Imidazopyrimidines and triazolopyrimidines as A2A / A2B inhibitors” (Incyte Corporation, priority 2018, dated 2023)

Key:
[1] = biological target: Adenosine A2A receptor (Homo sapiens (Human), UniProt P29274); test: A2A Tag-lite HTRF Assay; details: Tag-lite Adenosine A2A labeled cells; A2A Receptor Red antagonist fluorescent ligand 12.5 nM; one-site competitive binding model; read-out: A2A_Ki
From the text: The final concentration of DMSO was 1%.

[2] = biological target: human adenosine A2B receptor (Homo sapiens (Human), UniProt P29275); test: Adenosine A2B Receptor Cyclic AMP GS Assay; assay type: cell-based; details: HEK-293 cells expressing human A2B receptor; agonist NECA at 12 nM; cAMP accumulation (FRET); read-out: A2B_cAMP_EC50
Chain of human adenosine A2B receptor (P29275 whole entry): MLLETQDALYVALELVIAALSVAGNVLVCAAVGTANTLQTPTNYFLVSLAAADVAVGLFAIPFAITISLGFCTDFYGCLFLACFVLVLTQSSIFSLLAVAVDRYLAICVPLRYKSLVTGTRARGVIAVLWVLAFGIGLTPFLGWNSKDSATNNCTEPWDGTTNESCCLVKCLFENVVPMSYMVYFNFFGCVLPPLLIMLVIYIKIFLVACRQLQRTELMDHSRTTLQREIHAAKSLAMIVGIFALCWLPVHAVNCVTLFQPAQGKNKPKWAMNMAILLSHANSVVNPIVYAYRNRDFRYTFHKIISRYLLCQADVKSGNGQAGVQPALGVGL
Procedure: Stably transfected HEK-293 cells expressing the human adenosine A2B receptor (Perkin Elmer) were maintained in MEM culture medium with 10% FBS and 100 μg/ml Geneticin (Life Technologies). 18 to 24 hours prior to assay, geneticin was removed from culture. The cisbio cAMP-GS Dynamic kit utilizing the FRET (Fluorescence Resonance Energy Transfer) technology was used to measure cAMP accumulation in the cells. Compounds of the present disclosure at an appropriate concentration were mixed with 10000 cells/well in white 96 well half area plates (Perkin Elmer) for 30 min at RT gently shaking. Agonist, NECA (R&D Technologies) at 12 nM was added to each well for 60 min at RT gently shaking. Detection reagents, d2-labeled cAMP (acceptor) and anti-cAMP cryptate (donor) were added to each well for 60 min at RT gently shaking. Plates were read on Pherastar (BMG Labtech), fluorescence ratio 665/620 was calculated and EC50 determination was performed by fitting the curve of percent of control versus the log of the compound concentration using GraphPad Prism.

Chain of Adenosine A2A receptor (P29274 whole entry): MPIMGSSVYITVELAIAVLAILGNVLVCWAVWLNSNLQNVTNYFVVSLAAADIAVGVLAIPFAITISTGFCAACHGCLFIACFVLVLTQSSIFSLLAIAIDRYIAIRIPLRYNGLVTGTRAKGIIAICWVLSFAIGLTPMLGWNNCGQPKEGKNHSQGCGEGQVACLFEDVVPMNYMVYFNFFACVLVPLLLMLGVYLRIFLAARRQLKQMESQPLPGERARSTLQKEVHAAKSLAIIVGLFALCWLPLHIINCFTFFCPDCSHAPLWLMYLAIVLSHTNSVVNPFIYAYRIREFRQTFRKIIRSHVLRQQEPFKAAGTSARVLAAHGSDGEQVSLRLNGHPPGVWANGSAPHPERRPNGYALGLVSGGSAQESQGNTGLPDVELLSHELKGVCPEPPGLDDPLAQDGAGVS

Compound `Cn1cc(-c2ccccc2Cc2nc3c(-c4ccncn4)c(-c4cccc(C#N)c4)nc(N)n3n2)cn1` [Example 54, 3-(5-Amino-2-(2-(1-methyl-1H-pyrazol-4-yl)benzyl)-8-(pyrimidin-4-yl)-[1,2,4]triazolo[1,5-c]pyrimidin-7-yl)benzonitrile] has a Ki [1] of less than 10 nM and an EC50 [2] of less than 10 nM.
Work on `CCNC(=O)c1cn2c(N)nc(-c3cccc(C#N)c3)c(-c3cn[nH]c3C)c2n1` [Example 34, 5-Amino-7-(3-cyanophenyl)-N-ethyl-8-(5-methyl-1H-pyrazol-4-yl)imidazo[1,2-c]pyrimidine-2-carboxamide] yielded a Ki [1] of less than 10 nM and an EC50 [2] of less than 10 nM.
With `Cc1nc(CO)c(-c2c(-c3cccc(C#N)c3)nc(N)n3nc(Cc4ncccc4F)nc23)o1` [Example 85, 3-(5-Amino-2-((3-fluoropyridin-2-yl)methyl)-8-(4-(hydroxymethyl)-2-methyloxazol-5-yl)-[1,2,4]triazolo[1,5-c]pyrimidin-7-yl)benzonitrile] the Ki [1] was less than 10 nM and the EC50 [2] was less than 10 nM.
`CCn1nccc1-c1c(-c2cccc(C#N)c2)nc(N)n2nc(Cc3ccccn3)nc12` [Example 42, 3-(5-Amino-8-(1-ethyl-1H-pyrazol-5-yl)-2-(pyridin-2-ylmethyl)-[1,2,4]triazolo[1,5-c]pyrimidin-7-yl)benzonitrile] showed a Ki [1] of less than 10 nM and an EC50 [2] of less than 10 nM.
With `Cc1ncoc1-c1c(-c2cccc(C#N)c2)nc(N)n2nc(Cc3ccn(C)n3)nc12` [Example 92, 3-(5-Amino-2-((1-methyl-1H-pyrazol-3-yl)methyl)-8-(4-methyloxazol-5-yl)-[1,2,4]triazolo[1,5-c]pyrimidin-7-yl)benzonitrile] the Ki [1] was less than 10 nM and the EC50 [2] was less than 10 nM.
With `CCNC(=O)c1cn2c(N)nc(-c3cccc(C#N)c3)c(-c3ccncn3)c2n1` [Example 38, 5-Amino-7-(3-cyanophenyl)-N-ethyl-8-(pyrimidin-4-yl)imidazo[1,2-c]pyrimidine-2-carboxamide] the Ki [1] was less than 10 nM and the EC50 [2] was 10 to 100 nM.
Work on `CCNC(=O)c1nc2c(-c3cc(C)nc(C)c3)c(-c3ccccc3)nc(N)n2c1C#N` [Example 21, 5-Amino-3-cyano-8-(2,6-dimethylpyridin-4-yl)-N-ethyl-7-phenylimidazo[1,2-c]pyrimidine-2-carboxamide] yielded a Ki [1] of less than 10 nM and an EC50 [2] greater than 1000 nM.
Work on `CCNC(=O)c1cn2c(N)nc(-c3cccc(C#N)c3)c(-c3ccncc3C)c2n1` [Example 27, 5-Amino-7-(3-cyanophenyl)-N-ethyl-8-(3-methylpyridin-4-yl)imidazo[1,2-c]pyrimidine-2-carboxamide] yielded a Ki [1] of less than 10 nM and an EC50 [2] of 10 to 100 nM.
In the case of `CCn1nccc1-c1c(-c2cccc(C#N)c2)nc(N)n2nc(Cc3nn(C)c4ccccc34)nc12` [Example 56, 3-(5-Amino-8-(1-ethyl-1H-pyrazol-5-yl)-2-((1-methyl-1H-indazol-3-yl)methyl)-[1,2,4]triazolo[1,5-c]pyrimidin-7-yl)benzonitrile], the Ki [1] is reported as less than 10 nM and the EC50 [2] is reported as 10 to 100 nM.
In the case of `Cc1cc(-c2c(-c3ccccc3)nc(N)n3cc(C(N)=O)nc23)ccn1` [Example 14, 5-Amino-8-(2-methylpyridin-4-yl)-7-phenylimidazo[1,2-c]pyrimidine-2-carboxamide], the Ki [1] is reported as less than 10 nM and the EC50 [2] is reported as 10 to 100 nM.
`Cc1ncoc1-c1c(-c2cccc(C#N)c2)nc(N)n2nc(Cc3ccccn3)nc12` [Example 61, 3-(5-Amino-8-(4-methyloxazol-5-yl)-2-(pyridin-2-ylmethyl)-[1,2,4]triazolo[1,5-c]pyrimidin-7-yl)benzonitrile] showed a Ki [1] of less than 10 nM and an EC50 [2] of less than 10 nM.
With `N#Cc1cccc(-c2nc(Nc3ncccc3C#N)n3nc(C(O)c4ccccc4)nc3c2-c2ccncn2)c1` (stereo not shown) [Example 68, 2-((7-(3-Cyanophenyl)-2-(hydroxy(phenyl)methyl)-8-(pyrimidin-4-yl)-[1,2,4]triazolo[1,5-c]pyrimidin-5-yl)amino)nicotinonitrile] the Ki [1] was less than 10 nM and the EC50 [2] was 100 to 1000 nM.
`Cc1cc(-c2c(-c3ccccc3)nc(N)n3cc(-c4ccccc4)nc23)ccn1` [Example 10, 8-(2-Methylpyridin-4-yl)-2,7-diphenylimidazo[1,2-c]pyrimidin-5-amine] gave a Ki [1] of less than 10 nM and an EC50 [2] of 100 to 1000 nM.
`CCNC(=O)c1cn2c(N)nc(-c3cccc(C#N)c3)c(-c3ccncc3Cl)c2n1` [Example 29, 5-Amino-7-(3-cyanophenyl)-N-ethyl-8-(3-chloropyridin-4-yl)imidazo[1,2-c]pyrimidine-2-carboxamide] was tested, and the Ki [1] was less than 10 nM and the EC50 [2] was less than 10 nM.
With `CCn1cc(-c2c(-c3cccc(C#N)c3)nc(N)n3cc(C(=O)Nc4cnn(CCO)c4)nc23)ccc1=O` [Example 25, 5-Amino-7-(3-cyanophenyl)-8-(1-ethyl-6-oxo-1,6-dihydropyridin-3-yl)-N-(1-(2-hydroxyethyl)-1H-pyrazol-4-yl)imidazo[1,2-c]pyrimidine-2-carboxamide] the Ki [1] was less than 10 nM and the EC50 [2] was 100 to 1000 nM.
Compound `CCc1ncoc1-c1c(-c2cccc(C#N)c2)nc(N)n2nc(Cc3ccccn3)nc12` [Example 82, 3-(5-Amino-8-(4-ethyloxazol-5-yl)-2-(pyridin-2-ylmethyl)-[1,2,4]triazolo[1,5-c]pyrimidin-7-yl)benzonitrile] has a Ki [1] of less than 10 nM and an EC50 [2] of less than 10 nM.
Work on `CCn1nccc1-c1c(-c2cccc(C#N)c2)nc(N)n2nc(CC3CCCCC3)nc12` [Example 48, 3-(5-Amino-2-(cyclohexylmethyl)-8-(1-ethyl-1H-pyrazol-5-yl)-[1,2,4]triazolo[1,5-c]pyrimidin-7-yl)benzonitrile] yielded a Ki [1] of less than 10 nM and an EC50 [2] of 10 to 100 nM.
For `CN1CC(=O)N(Cc2cccc(F)c2Cc2nc3c(-c4ccncn4)c(-c4cccc(C#N)c4)nc(N)n3n2)C1=O` [Example 87, 3-(5-Amino-2-(2-fluoro-6-((3-methyl-2,5-dioxoimidazolidin-1-yl)methyl)benzyl)-8-(pyrimidin-4-yl)-[1,2,4]triazolo[1,5-c]pyrimidin-7-yl)benzonitrile], the Ki [1] was less than 10 nM and the EC50 [2] was less than 10 nM.
`CCCn1nccc1-c1c(-c2cccc(C#N)c2)nc(N)n2nc(Cc3ccccn3)nc12` [Example 43, 3-(5-Amino-8-(1-propyl-1H-pyrazol-5-yl)-2-(pyridin-2-ylmethyl)-[1,2,4]triazolo[1,5-c]pyrimidin-7-yl)benzonitrile] was tested, and the Ki [1] was less than 10 nM and the EC50 [2] was less than 10 nM.
`N#Cc1cccc(-c2nc(N)n3nc(C(Oc4ccccn4)c4ccccc4)nc3c2-c2ccncn2)c1` (stereo not shown) [Example 71, 3-(5-Amino-2-(phenyl(pyridin-2-yloxy)methyl)-8-(pyrimidin-4-yl)-[1,2,4]triazolo[1,5-c]pyrimidin-7-yl)benzonitrile] showed a Ki [1] of less than 10 nM and an EC50 [2] of 10 to 100 nM.
Work on `CCNC(=O)c1cn2c(N)nc(-c3ccccc3)c(C3CCN(C(N)=O)CC3)c2n1` [Example 16, 5-Amino-8-(1-carbamoylpiperidin-4-yl)-N-ethyl-7-phenylimidazo[1,2-c]pyrimidine-2-carboxamide] yielded a Ki [1] of less than 10 nM and an EC50 [2] of 100 to 1000 nM.
Compound `N#Cc1cccc(-c2nc(N)n3nc(C(=O)c4ccccc4)nc3c2-c2ccncn2)c1` [Example 66, 3-(5-Amino-2-benzoyl-8-(pyrimidin-4-yl)-[1,2,4]triazolo[1,5-c]pyrimidin-7-yl)benzonitrile] has a Ki [1] of less than 10 nM and an EC50 [2] of less than 10 nM.
With `CCNC(=O)c1nc2c(-c3ccnc(OC)c3)c(-c3cccc(C#N)c3)nc(N)n2c1C` [Example 18, 5-Amino-7-(3-cyanophenyl)-N-ethyl-8-(2-methoxypyridin-4-yl)-3-methylimidazo[1,2-c]pyrimidine-2-carboxamide] the Ki [1] was 10 to 100 nM and the EC50 [2] was 10 to 100 nM.
For `CCNC(=O)c1cn2c(N)nc(-c3cccc(C#N)c3)c(-c3ccncc3F)c2n1` [Example 28, 5-Amino-7-(3-cyanophenyl)-N-ethyl-8-(3-fluoropyridin-4-yl)imidazo[1,2-c]pyrimidine-2-carboxamide], the Ki [1] was less than 10 nM and the EC50 [2] was less than 10 nM.
For `CCNC(=O)c1cn2c(N)nc(-c3cccc(C#N)c3)c(-c3ccnn3CC)c2n1` [Example 35, 5-Amino-7-(3-cyanophenyl)-N-ethyl-8-(1-ethyl-1H-pyrazol-5-yl)imidazo[1,2-c]pyrimidine-2-carboxamide], the Ki [1] was less than 10 nM and the EC50 [2] was less than 10 nM.
With `COc1cc(-c2c(-c3cccc(C#N)c3)nc(N)n3nc(Cc4ccccn4)nc23)cc(C)n1` [Example 59, 3-(5-Amino-8-(2-methoxy-6-methylpyridin-4-yl)-2-(pyridin-2-ylmethyl)-[1,2,4]triazolo[1,5-c]pyrimidin-7-yl)benzonitrile] the Ki [1] was less than 10 nM and the EC50 [2] was 10 to 100 nM.
With `N#Cc1cccc(-c2nc(N)n3nc(C4CCOC4)nc3c2-c2ccncc2)c1` (stereo not shown) [Example 70, 3-(5-Amino-8-(pyridin-4-yl)-2-(tetrahydrofuran-3-yl)-[1,2,4]triazolo[1,5-c]pyrimidin-7-yl)benzonitrile] the Ki [1] was less than 10 nM and the EC50 [2] was 10 to 100 nM.
`CCNC(=O)c1nc2c(-c3ccnc(OC)c3)c(-c3cccc(C#N)c3)nc(N)n2c1OCCO` [Example 17, 5-Amino-7-(3-cyanophenyl)-JV-ethyl-3-(2-hydroxyethoxy)-8-(2-methoxypyridin-4-yl)imidazo[1,2-c]pyrimidine-2-carboxamide] gave a Ki [1] of less than 10 nM and an EC50 [2] of 10 to 100 nM.
For `N#Cc1cccc(-c2nc(N)n3nc(Cc4c(F)cccc4CN4C[C@@H](O)[C@H](F)C4)nc3c2-c2ccncn2)c1` [Example 72, 3-(5-Amino-2-(2-fluoro-6-(((3R,4R)-3-fluoro-4-hydroxypyrrolidin-1-yl)methyl)benzyl)-8-(pyrimidin-4-yl)-[1,2,4]triazolo[1,5-c]pyrimidin-7-yl)benzonitrile], the Ki [1] was less than 10 nM and the EC50 [2] was 10 to 100 nM.
